From patent US20230113037A1 (Bayer Aktiengesellschaft, priority 2019, published 2023)
Where “and” joins values, the source holds several entries; their conditions need not be identical. Equal entries are not always repeated. Where two headings read alike, the source gives them in different places.

Legend:
[1] = target: T1, AHR (Homo sapiens, UniProt P35869); assay: In vitro assay 1: antagonism in human cell line (AHR transactivation, firefly luciferase reporter, kynurenic acid prestimulated); type: cell-based; conditions: AHR Antagonism Human IC50 [M]
T1 construct: U87 MG glioblastoma cells (ATCC #HTB-14) endogenously expressing AHR; endogenous in cells; host or cells: U87 MG glioblastoma cells (ATCC #HTB-14)
T1 sequence (P35869 11-848): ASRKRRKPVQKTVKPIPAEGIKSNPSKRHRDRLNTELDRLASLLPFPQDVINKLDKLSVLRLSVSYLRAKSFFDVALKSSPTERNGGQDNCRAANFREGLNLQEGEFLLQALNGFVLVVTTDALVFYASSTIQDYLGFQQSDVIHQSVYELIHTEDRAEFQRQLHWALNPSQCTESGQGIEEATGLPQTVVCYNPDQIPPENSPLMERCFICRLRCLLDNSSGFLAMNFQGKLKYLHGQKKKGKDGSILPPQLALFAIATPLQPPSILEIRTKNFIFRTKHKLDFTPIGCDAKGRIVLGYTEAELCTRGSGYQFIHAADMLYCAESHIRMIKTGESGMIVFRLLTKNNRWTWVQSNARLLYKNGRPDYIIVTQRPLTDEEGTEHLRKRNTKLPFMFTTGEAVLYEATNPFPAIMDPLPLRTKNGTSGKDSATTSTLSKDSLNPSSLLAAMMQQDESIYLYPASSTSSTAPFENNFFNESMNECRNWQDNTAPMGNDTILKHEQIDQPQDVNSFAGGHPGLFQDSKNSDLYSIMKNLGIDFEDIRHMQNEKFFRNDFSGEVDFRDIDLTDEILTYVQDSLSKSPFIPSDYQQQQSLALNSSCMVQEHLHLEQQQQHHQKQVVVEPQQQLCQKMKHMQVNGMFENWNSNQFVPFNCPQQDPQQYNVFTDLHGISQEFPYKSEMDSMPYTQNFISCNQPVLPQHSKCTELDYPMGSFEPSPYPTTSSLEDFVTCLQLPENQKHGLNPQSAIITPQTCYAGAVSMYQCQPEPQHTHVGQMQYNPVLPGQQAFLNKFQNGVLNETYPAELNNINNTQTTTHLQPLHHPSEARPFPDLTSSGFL
Method in brief: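 U87 MG glioblastoma cells with endogenous AHR, stably carrying a DRE-driven firefly luciferase reporter and constitutive Renilla reporter, prestimulated with kynurenic acid before compound addition. Firefly and Renilla read by dual luciferase; Renilla flags toxicity; normalized to controls (150 μM kynurenic acid + 5 μM staurosporine as full inhibition); repeat values averaged or median.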

[2] = target: T2, AHR (Mus musculus, UniProt P30561); assay: In vitro assay 3: antagonism in mouse cell line (AHR transactivation, firefly luciferase reporter, kynurenic acid prestimulated); type: cell-based
T2 sequence (P30561 1-848 P471L/N533S/M589L): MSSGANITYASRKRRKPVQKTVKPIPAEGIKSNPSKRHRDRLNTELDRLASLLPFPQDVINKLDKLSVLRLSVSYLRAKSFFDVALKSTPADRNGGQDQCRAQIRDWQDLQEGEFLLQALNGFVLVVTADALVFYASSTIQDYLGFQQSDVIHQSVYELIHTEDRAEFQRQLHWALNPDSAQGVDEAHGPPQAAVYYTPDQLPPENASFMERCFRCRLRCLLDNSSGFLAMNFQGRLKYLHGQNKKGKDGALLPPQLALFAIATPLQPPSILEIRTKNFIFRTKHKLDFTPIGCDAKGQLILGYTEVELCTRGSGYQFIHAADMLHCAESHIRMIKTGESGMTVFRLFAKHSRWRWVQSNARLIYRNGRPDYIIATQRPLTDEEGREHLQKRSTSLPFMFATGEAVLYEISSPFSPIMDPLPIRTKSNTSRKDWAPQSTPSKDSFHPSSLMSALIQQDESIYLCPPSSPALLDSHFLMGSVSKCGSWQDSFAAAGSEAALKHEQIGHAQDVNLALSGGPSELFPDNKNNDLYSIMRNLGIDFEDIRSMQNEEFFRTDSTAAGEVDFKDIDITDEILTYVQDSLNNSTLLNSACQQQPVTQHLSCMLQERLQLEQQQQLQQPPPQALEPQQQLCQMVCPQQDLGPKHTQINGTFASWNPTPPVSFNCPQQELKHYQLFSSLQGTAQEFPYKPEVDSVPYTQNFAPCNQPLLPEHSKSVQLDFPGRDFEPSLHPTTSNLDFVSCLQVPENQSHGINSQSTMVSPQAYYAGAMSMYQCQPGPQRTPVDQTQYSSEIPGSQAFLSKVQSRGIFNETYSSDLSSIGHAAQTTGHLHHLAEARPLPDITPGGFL
Method in brief: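 Cells were first stimulated with kynurenic acid, then exposed to test compound, after which firefly luciferase from a DRE-containing AHR reporter was read out. Signal was scaled between positive and negative controls. Cells not given kynurenic acid provided the inhibition reference.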

[3] = mouse Hepa 1c1c7 cells, 200 μM kynurenic acid, 20 hours, read-out: AHR Antagonism Mouse IC50
[4] = Hepa 1c1c7 cells, 200 μM kynurenic acid, 20 hours, firefly luciferase reporter, read-out: AHR Antagonism Mouse IC50

SMILES	IC50 [1] [M]	IC50 [2, 3]	IC50 ([2]; read-out: AHR Antagonism Mouse IC50, mouse Hepa 1c1c7 cells, 200 μM kynurenic acid, 20 hours) [nM]	IC50 ([1]; firefly luciferase reporter) [M]	IC50 [2, 4] [nM]
CC[C@@H](Nc1nc2ccccc2c2nc(-c3ccccc3S(C)(=O)=O)nn12)C(N)=O [Example 451, (2R)-2-({2-[2-(methanesulfonyl)phenyl][1,2,4]triazolo[1,5-c]quinazolin-5-yl}amino)butanamide]	7.16e-06	131 nM	–	–	–
CCCCNC(=O)[C@H](C)Nc1nc2c(Br)cccc2c2nc(-c3ccc(Cl)cc3OC(F)F)nn12 [Example 686, N^2-{7-bromo-2-[4-chloro-2-(difluoromethoxy)phenyl][1,2,4]triazolo[1,5-c]quinazolin-5-yl}-N-butyl-L-alaninamide]	2.1e-07	18.5 nM	–	–	–
CC[C@@H](Nc1nc2ccccc2c2nc(-c3ccsc3C)nn12)C(N)=O [Example 351]	1.37e-09	0.125 nM	–	–	–
Cn1ccc(-c2nc3c4ccccc4nc(N[C@@H]4CNCCNC4=O)n3n2)n1 [Example 257, (6R)-6-{[2-(1-methyl-1H-pyrazol-3-yl)[1,2,4]triazolo[1,5-c]quinazolin-5-yl]amino}-1,4-diazepan-5-one]	6.29e-06	12100 nM	–	–	–
CC(C)Sc1cccc2c1nc(N[C@@H]1CCCCNC1=O)n1nc(-c3cnn(C)c3)nc21 [Example 768]	1.32e-07	–	1220	–	–
O=C1NCCCC[C@@H]1Nc1nc2ccccc2c2nc(-c3ccccc3OC(F)(F)F)nn12 [Example 457, (3S)-3-({2-[2-(trifluoromethoxy)phenyl][1,2,4]triazolo[1,5-c]quinazolin-5-yl}amino)azepan-2-one]	9.89e-07	78.3 nM	–	–	–
COc1cccc(-c2nc3c4ccccc4nc(N[C@H](C)C(=O)NCCCO)n3n2)c1 [Example 112, N-(3-hydroxypropyl)-N^2-[2-(3-methoxyphenyl)[1,2,4]triazolo[1,5-c]quinazolin-5-yl]-D-alaninamide]	3.79e-08	6 nM	–	–	–
O=C1NCCCC[C@@H]1Nc1nc2ccccc2c2nc(-c3ccc(Cl)cc3OC(F)F)nn12 [Example 526, (3S)-3-({2-[4-chloro-2-(difluoromethoxy)phenyl][1,2,4]triazolo[1,5-c]quinazolin-5-yl}amino)azepan-2-one]	1.47e-08	2.33 nM	–	–	–
Cn1cc(-c2nc3c4ccccc4nc(N[C@H]4CCCCNC4=O)n3n2)cn1 [Example 14, (3S)-3-{[2-(1-methyl-1H-pyrazol-4-yl)[1,2,4]triazolo[1,5-c]quinazolin-5-yl]amino}azepan-2-one]	2.14e-07	234 nM	–	–	–
C[C@@H](Nc1nc2c(C(F)(F)F)cccc2c2nc(-c3cnn(C)c3)nn12)C(=O)N(C)CCN(C)C [Example 877, N-[2-(dimethylamino)ethyl]-N-methyl-N^2-[2-(1-methyl-1H-pyrazol-4-yl)-7-(trifluoromethyl)[1,2,4]triazolo[1,5-c]quinazolin-5-yl]-D-alaninamide]	–	–	–	8.72e-08	160
CC(C)n1cc(-c2nc3c4cccc(C#N)c4nc(N[C@@H]4CNCCNC4=O)n3n2)cn1 [Example 931, 5-{[(6R)-5-oxo-1,4-diazepan-6-yl]amino}-2-[1-(propan-2-yl)-1H-pyrazol-4-yl][1,2,4]triazolo[1,5-c]quinazoline-7-carbonitrile]	–	–	–	1.3e-07	297
COc1cccc(-c2nc3c4c(C)cccc4nc(N[C@@H]4CNCCNC4=O)n3n2)c1 [Example 289, (6R)-6-{[2-(3-methoxyphenyl)-10-methyl[1,2,4]triazolo[1,5-c]quinazolin-5-yl]amino}-1,4-diazepan-5-one]	1.12e-06	269 nM	–	–	–
COc1cccc(-c2nc3c4cc(C)ccc4nc(N[C@@H]4CCCCNC4=O)n3n2)c1 [Example 154, (3R)-3-{[2-(3-methoxyphenyl)-9-methyl[1,2,4]triazolo[1,5-c]quinazolin-5-yl]amino}azepan-2-one]	2.18e-09	1.16 nM	–	–	–
CSc1cccc2c1nc(N[C@@H]1CCCCNC1=O)n1nc(-c3cnn(C(C)C)c3)nc21 [Example 771, (3R)-3-({7-(methylsulfanyl)-2-[1-(propan-2-yl)-1H-pyrazol-4-yl][1,2,4]triazolo[1,5-c]quinazolin-5-yl}amino)azepan-2-one]	1.02e-08	104 nM	–	–	–
COc1ccc(-c2nc3c4cccc(Br)c4nc(N[C@@H](C(=O)N4CCOCC4)C(C)C)n3n2)cc1 [Example 925, (2R)-2-{[7-bromo-2-(4-methoxyphenyl)[1,2,4]triazolo[1,5-c]quinazolin-5-yl]amino}-3-methyl-1-(morpholin-4-yl)butan-1-one]	–	–	–	6.08e-09	4.14
CC[C@H](Nc1nc2c(Br)cccc2c2nc(-c3ccc(Cl)cc3OC(F)(F)F)nn12)C(N)=O [Example 574, (2S)-2-({7-bromo-2-[4-chloro-2-(trifluoromethoxy)phenyl][1,2,4]triazolo[1,5-c]quinazolin-5-yl}amino)butanamide]	5e-09	1.07 nM	–	–	–
O=C1NCCCC[C@H]1Nc1nc2ccccc2c2nc(-c3cnn(C4CCNCC4)c3)nn12 [Example 646, (3R)-3-({2-[1-(piperidin-4-yl)-1H-pyrazol-4-yl][1,2,4]triazolo[1,5-c]quinazolin-5-yl}amino)azepan-2-one]	2.89e-06	> 20000 nM and 11800 nM	–	–	–
O=C1NCCCC[C@H]1Nc1nc2ccccc2c2nc(-c3ccsc3)nn12 [Example 340, (3R)-3-{[2-(thiophen-3-yl)[1,2,4]triazolo[1,5-c]quinazolin-5-yl]amino}azepan-2-one]	7.33e-10	0.517 nM	–	–	–
COc1ccc(-c2nc3c4ccccc4nc(N[C@H](C)C(=O)N4CCN(C)CC4)n3n2)cc1 [Example 777, (2R)-2-{[2-(4-methoxyphenyl)[1,2,4]triazolo[1,5-c]quinazolin-5-yl]amino}-1-(4-methylpiperazin-1-yl)propan-1-one]	1.8e-09	2.21 nM	–	–	–
N#Cc1ccc(-c2nc3c4cccc(Br)c4nc(N[C@@H]4CCNC4=O)n3n2)cc1 [Example 561, 4-(7-bromo-5-{[(3R)-2-oxopyrrolidin-3-yl]amino}[1,2,4]triazolo[1,5-c]quinazolin-2-yl)benzonitrile]	3.96e-09	7.55 nM	–	–	–
CCCCNC(=O)[C@@H](CC)Nc1nc2c(Br)cccc2c2nc(-c3ccc(Cl)cc3OC(F)(F)F)nn12 [Example 814, (2R)-2-({7-bromo-2-[4-chloro-2-(trifluoromethoxy)phenyl][1,2,4]triazolo[1,5-c]quinazolin-5-yl}amino)-N-butylbutanamide]	–	–	–	2.5e-08	11
Cn1cc(-c2nc3c4cccc(C(F)(F)F)c4nc(NC4C(=O)NCC4(C)C)n3n2)cn1 (racemic) [Example 728, (+/−)-4,4-dimethyl-3-{[2-(1-methyl-1H-pyrazol-4-yl)-7-(trifluoromethyl)[1,2,4]triazolo[1,5-c]quinazolin-5-yl]amino}pyrrolidin-2-one]	> 2e-05	446 nM	–	–	–
